According to publication PMC11535068, “Design, in silico studies and biological evaluation of novel chalcones tethered triazolo[3,4-a]isoquinoline as EGFR inhibitors targeting resistance in non-small cell lung cancer” (Scientific Reports, 2024):

Key:
A549 = test: MTT antiproliferative assay; conditions: Homo sapiens, A549, 24 h, read-out: IC50 A549
Description: (§4) Cell line cells were purchased from the American Type Culture Collection (ATCC, Manassas, VA) and were cultured according to the supplier’s instructions. […] The media was changed every 48 h, and the cells were split when 80–90% confluence was reached. Cell viability was evaluated by MTT assay.

total EGFR = molecular target: T1, total EGFR (Homo sapiens, UniProt P00533); test: EGFR inhibition assay on A549 cells (cloud clone SEA757Hu kit); assay type: cell-based; conditions: for IC50: total EGFR, A549 cells; for Fold more efficient in inhibiting EGFR than lapatinib: total EGFR IC50 ratio to Lapatinib
T1 construct: endogenous in cells; host or cells: A549
Description: (§1) EGFR inhibition assay was performed on A549 cancer cells using cloud clone product SEA757Hu 96 Ki, according to manufacturer’s instructions protocol. The homogeneous time-resolved fluorescence assay method was used to assess the inhibitory activity of 3e and 3f against EGFR^WT, EGFR^T790M and EGFR^L858R. The EGFR proteins (EGFR^WT, EGFR^T790M and EGFR^L858R) were obtained from Signalchem (BC V6V 2J2, Canada). ATP and other chemicals were obtained from Sigma. […] After 30 min, the reaction was stopped by adding detection reagents containing EDTA.

HCT-116 = test: MTT antiproliferative assay; conditions: Homo sapiens, HCT-116, 24 h, read-out: IC50 HCT-116
Description: as §4

MCF-7 = test: MTT antiproliferative assay; conditions: Homo sapiens, MCF7, 24 h, read-out: IC50 MCF-7
Description: as §4

HT-29 = test: MTT antiproliferative assay; conditions: Homo sapiens, HT-29, 24 h, read-out: IC50 HT-29
Description: as §4

PC3 = test: MTT antiproliferative assay; conditions: Homo sapiens, PC-3, 24 h, read-out: IC50 PC3
Description: as §4

WI-38 = test: MTT assay on normal lung cell line; conditions: Homo sapiens, WI-38, 24 h, read-out: IC50 WI-38
Description: as §4

A549 lung cancer cells [1] = test: Annexin V-FITC/PI flow cytometric apoptosis analysis; assay type: cell-based, human; conditions: A549, 24 h, 3e 2.3 µM, 3f 1.15 µM (IC50); for Apoptosis Late (%): vehicle 0.21%; for Apoptosis Early (%): vehicle 0.49%; for Apoptosis Total (%): vehicle 0.70%; for Necrosis (%): vehicle 1.58%
Description: (§2) Quantitation of DNA content was evaluated using the Annexin V-FITC Apoptosis Detection kit (BioVision, CA, USA). Dual staining for Annexin-V and PI allows the discrimination between live cells, necrotic cells, and cells in different phases of apoptosis. […] Then, cells were collected and washed with 1X phosphate-buffered saline. The cells were stained in the dark with annexin V-FITC and propidium iodide in a binding buffer and analyzed using the flow cytometer. The cell cycle profiles were analysed using MultiCycle software (Phoenix Flow Systems, San Diego, CA)[60].

CDK4 = test: RT-qPCR gene expression in A549 cells; assay type: cell-based, human; conditions: A549, 24 h, vs vehicle cells, beta-actin housekeeping gene
Description: (§3) The real-time polymerase chain reaction (RT-qPCR) technique was used to evaluate the gene expression. A panel of eight genes (P53, BAX, Caspase-3, Caspase-8, Caspase-9, MMP1, CDK4, and Bcl2) was chosen to estimate the compounds’ ability to induce apoptosis. A549 cancer cells were treated with 3e and 3f compounds for 24 h before total RNA extraction. While untreated A549 cancer cells were utilized as a negative control. One-step RT-qPCR was performed using the iScript™ One-Step RT-PCR kit with SYBR®. The primer pairs sequences for each gene used are mentioned in Table 7. Control reactions were formed […] or without the reverse transcriptase enzyme.

Caspase 8 = test: RT-qPCR gene expression in A549 cells; assay type: cell-based, human; conditions: A549, 24 h, vs vehicle cells, beta-actin housekeeping gene
Description: as §3

Caspase 9 = test: RT-qPCR gene expression in A549 cells; assay type: cell-based, human; conditions: A549, 24 h, vs vehicle cells, beta-actin housekeeping gene
Description: as §3

Bax = test: RT-qPCR gene expression in A549 cells; assay type: cell-based, human; conditions: A549, 24 h, vs vehicle cells
Description: as §3

P53 = test: RT-qPCR gene expression in A549 cells; assay type: cell-based, human; conditions: A549, 24 h, vs vehicle cells
Description: as §3

Caspase 3 = test: RT-qPCR gene expression in A549 cells; assay type: cell-based, human; conditions: A549, 24 h, vs vehicle cells, beta-actin housekeeping gene
Description: as §3

MMP1 = test: RT-qPCR gene expression in A549 cells; assay type: cell-based, human; conditions: A549, 24 h, vs vehicle cells, beta-actin housekeeping gene
Description: as §3

Bcl2 = test: RT-qPCR gene expression in A549 cells; assay type: cell-based, human; conditions: A549, 24 h, vs vehicle cells, beta-actin housekeeping gene
Description: as §3

EGFR^L858R = molecular target: T2, EGFR^L858R (Homo sapiens, UniProt P00533, L858R); test: Homogeneous time-resolved fluorescence EGFR-TK assay; assay type: biochemical; conditions: selectivity index
T2 construct: purchased Signalchem
Description: as §1

EGFR^T790M = molecular target: T3, EGFR^T790M (Homo sapiens, UniProt P00533, T790M); test: as above; assay type: biochemical; conditions: selectivity index
T3 construct: purchased Signalchem
Description: as §1

A549 lung cancer cells [2] = test: Cell cycle analysis (DNA content, flow cytometry); assay type: cell-based, human; conditions: A549, 24 h, at IC50; for DNA content Pre-G1%: vehicle 2.28%; for DNA content G2/M%: vehicle 8.99%; for DNA content S%: vehicle 44.26%; for DNA content G0–G1%: vehicle 46.75%
Description: as §2

| Structure (SMILES) | IC50 (A549) [µM] | IC50 (total EGFR) [µM] | IC50 (HCT-116) [µM] | IC50 (MCF-7) [µM] | IC50 (HT-29) [µM] | melting point [°C] | IC50 (PC3) [µM] | IC50 (WI-38) [µM] | other results |
| --- | --- | --- | --- | --- | --- | --- | --- | --- | --- |
| COc1cc2c(cc1OC)C1N(CC2)C(C(=O)C=Cc2cn(-c3ccccc3)nc2-c2ccccc2)=NN1c1ccccc1 (centres unmarked) [Compound 3a, 1-(8,9-Dimethoxy-1-phenyl-1,5,6,10b-tetrahydro-[1,2,4]triazolo[3,4-a]isoquinolin-3-yl)-3-(1,3-diphenyl-1H-pyrazol-4-yl)prop-2-en-1-one] | 1.98 ± 0.5 | 1.62 ± 0.23 | 8.15 ± 0.54 | 8.07 ± 0.1 | 16.2 ± 0.57 | 180 to 182 | 3.14 ± 1.76 | 890.44 ± 0.13 |  |
| COc1cc2c(cc1OC)C1N(CC2)C(C(=O)C=Cc2cn(-c3ccccc3)nc2-c2ccccc2)=NN1c1ccc(C)cc1 (centres unmarked) [Compound 3b, 1-(8,9-Dimethoxy-1-(p-tolyl)-1,5,6,10b-tetrahydro-[1,2,4]triazolo[3,4-a]isoquinolin-3-yl)-3-(1,3-diphenyl-1H-pyrazol-4-yl)prop-2-en-1-one] | 2.45 ± 0.68 | 1.89 ± 0.37 | 9.41 ± 0.47 | 10 ± 0.23 | 5.05 ± 0.42 | 184 to 186 | 6.61 ± 1.63 | 669.88 ± 0.26 |  |
| COc1ccc(N2N=C(C(=O)C=Cc3cn(-c4ccccc4)nc3-c3ccccc3)N3CCc4cc(OC)c(OC)cc4C32)cc1 (centres unmarked) [Compound 3c, 1-(8,9-Dimethoxy-1-(4-methoxyphenyl)-1,5,6,10b-tetrahydro-[1,2,4]triazolo[3,4-a]isoquinolin-3-yl)-3-(1,3-diphenyl-1H-pyrazol-4-yl)prop-2-en-1-one] | 5.26 ± 0.49 | 0.059 ± 0.16 | 5.4 ± 0.73 | 4.07 ± 0.38 | 4.69 ± 0.55 | 186 to 188 | 3.22 ± 1.37 | 451.08 ± 0.11 |  |
| COc1cc2c(cc1OC)C1N(CC2)C(C(=O)C=Cc2cn(-c3ccccc3)nc2-c2ccccc2)=NN1c1ccc(Cl)cc1 (centres unmarked) [Compound 3d, 1-(1-(4-Chlorophenyl)-8,9-dimethoxy-1,5,6,10b-tetrahydro-[1,2,4]triazolo[3,4-a]isoquinolin-3-yl)-3-(1,3-diphenyl-1H-pyrazol-4-yl)prop-2-en-1-one] | 4.68 ± 0.41 | 0.066 | 14.1 ± 0.66 | 13.5 ± 0.29 | 15 ± 0.58 | 216 to 218 | 5.05 ± 1.43 | 468.92 ± 0.17 |  |
| COc1cc2c(cc1OC)C1N(CC2)C(C(=O)C=Cc2cn(-c3ccccc3)nc2-c2ccccc2)=NN1c1ccc(Br)cc1 (centres unmarked) [Compound 3e, 1-(1-(4-Bromophenyl)-8,9-dimethoxy-1,5,6,10b-tetrahydro-[1,2,4]triazolo[3,4-a]isoquinolin-3-yl)-3-(1,3-diphenyl-1H-pyrazol-4-yl)prop-2-en-1-one] | 2.3 ± 0.11 |  | 14.8 ± 0.31 | 4.21 ± 0.41 | 4.2 ± 0.38 | 220 to 222 | 2.72 ± 1.36 | 1731.9 ± 0.21 | Fold more efficient in inhibiting EGFR than lapatinib (total EGFR): 1.42 fold; Apoptosis Late (%) (A549 lung cancer cells [1]): 4.5%; Apoptosis Early (%) (A549 lung cancer cells [1]): 4.26%; Apoptosis Total (%) (A549 lung cancer cells [1]): 8.76%; Necrosis (%) (A549 lung cancer cells [1]): 7.26%; CDK4 gene expression fold change (CDK4): 0.44 fold; Caspase 8 gene expression fold change (Caspase 8): 4.23 fold; Caspase 9 gene expression fold change (Caspase 9): 6.55 fold; Bax gene expression (in words) (Bax): significantly upregulated; p53 gene expression (in words) (P53): significantly upregulated; Caspase 3 gene expression fold change (Caspase 3): 9.29 fold; MMP1 gene expression fold change (MMP1): 0.37 fold; Bcl-2 gene expression fold change (Bcl2): 0.18 fold; SI^a = EGFR^WT IC50/ EGFR^L858R IC50 (EGFR^L858R): 15.56; SI^b = EGFR^WT IC50/ EGFR^T790M IC50 (EGFR^T790M): 2.63; DNA content Pre-G1% (A549 lung cancer cells [2]): 16.02%; DNA content G2/M% (A549 lung cancer cells [2]): 22.74%; DNA content S% (A549 lung cancer cells [2]): 35.93%; DNA content G0–G1% (A549 lung cancer cells [2]): 41.33% |
| COc1cc2c(cc1OC)C1N(CC2)C(C(=O)C=Cc2cn(-c3ccccc3)nc2-c2ccccc2)=NN1c1ccc([N+](=O)[O-])cc1 (centres unmarked) [Compound 3f, 1-(8,9-Dimethoxy-1-(4-nitrophenyl)-1,5,6,10b-tetrahydro-[1,2,4]triazolo[3,4-a]isoquinolin-3-yl)-3-(1,3-diphenyl-1H-pyrazol-4-yl)prop-2-en-1-one] | 1.15 ± 0.38 | 0.023 | 4.61 ± 0.28 | 5.53 ± 0.33 | 2.41 ± 0.41 | 224 to 226 | 22.16 ± 0.18 | 1578 ± 0.23 | Fold more efficient in inhibiting EGFR than lapatinib (total EGFR): 1.91 fold; Apoptosis Late (%) (A549 lung cancer cells [1]): 15.24%; Apoptosis Early (%) (A549 lung cancer cells [1]): 3.08%; Apoptosis Total (%) (A549 lung cancer cells [1]): 18.32%; Necrosis (%) (A549 lung cancer cells [1]): 9.89%; CDK4 gene expression fold change (CDK4): 0.29 fold; Caspase 8 gene expression fold change (Caspase 8): 3.48 fold; Caspase 9 gene expression fold change (Caspase 9): 9.32 fold; Bax gene expression (in words) (Bax): significantly upregulated; p53 gene expression (in words) (P53): significantly upregulated; Caspase 3 gene expression fold change (Caspase 3): 11.26 fold; MMP1 gene expression fold change (MMP1): 0.31 fold; Bcl-2 gene expression fold change (Bcl2): 0.13 fold; SI^a = EGFR^WT IC50/ EGFR^L858R IC50 (EGFR^L858R): 25.95; SI^b = EGFR^WT IC50/ EGFR^T790M IC50 (EGFR^T790M): 4.52; DNA content Pre-G1% (A549 lung cancer cells [2]): 28.21%; DNA content G2/M% (A549 lung cancer cells [2]): 39.84%; DNA content S% (A549 lung cancer cells [2]): 26.42%; DNA content G0–G1% (A549 lung cancer cells [2]): 33.74% |
| O=c1[nH]cc(F)c(=O)[nH]1 [Compound 5-FU, 5-fluorouracil, reference compound] | 66.24 ± 0.36 |  | 171.5 ± 0.23 | 160.3 ± 0.47 | 203.6 ± 0.48 |  | 178.2 ± 0.34 | 210.69 ± 0.19 |  |
| C#Cc1cccc(Nc2ncnc3cc(OCCOC)c(OCCOC)cc23)c1 [Erlotinib, reference compound] | 7.32 ± 0.52 |  |  |  | 9.5 ± 0.46 |  | 14.4 ± 0.78 | 1431.6 ± 0.22 |  |
| CS(=O)(=O)CCNCc1ccc(-c2ccc3ncnc(Nc4ccc(OCc5cccc(F)c5)c(Cl)c4)c3c2)o1 [Lapatinib, reference compound] | 9.66 ± 0.44 |  | 5.92 ± 0.45 | 5.02 ± 1.1 | 8.23 ± 0.33 |  | 13.7 ± 0.89 | 1239.4 ± 0.18 |  |
